# Test system: A498
# Assay: Cell panel screen (CellTiter-Glo)
# Format: cell-based, human
# Conditions: A498 (listed under Lung), 20 micromolar, 72 hrs
# Protocol: (§1) All cells were obtained from the cell bank of the American Type Culture Collection (ATCC) and cultured in the supplier's recommended media supplemented with 10% FBS. The cell panel screen was measured using the CellTiter-Glo assay (Promega, Madison, WI) following a standard protocol. Briefly, cancer cells were seeded in 96-well plates and cultured overnight at 37°C with or without 5% CO2 in an incubator. Each compound was dissolved with limited DMSO and diluted to a certain concentration with culture medium and then added to the corresponding well of the cell plate. The final concentration of compound was 20 μM. The control cells (without treatment) received the same amount of DMSO and were incubated under the same conditions. After 72 h cultivation, 100 μL of the CellTiter-Glo reagent was added directly to each well for 10-minute incubation. The plate was then read on a FlexStation 3 microplate luminometer (Molecular Devices, USA) to monitor the luminescence signal generated by the luciferase-catalyzed reaction of luciferin and ATP. The percent of growth inhibition was calculated using the following formula: (untreated cells − treated cells)/(untreated cells − background without cells) ∗ 100.
row,Substance,Percent Inhibition
1,Bannaxanthone E [bn-3],96%

# Test system: A704
# Assay: Cell panel screen (CellTiter-Glo)
# Format: cell-based, human
# Conditions: A704 (Kidney), 20 micromolar, 72 hrs
# Protocol: as §1
row,Substance,Percent Inhibition
1,Bannaxanthone E [bn-3],98%

# Test system: BT-474
# Assay: Cell panel screen (CellTiter-Glo)
# Format: cell-based, human
# Conditions: BT-474 (Breast), 20 micromolar, 72 hrs
# Protocol: as §1
row,Substance,Percent Inhibition
1,Bannaxanthone E [bn-3],90%

# Test system: BT-549
# Assay: Cell panel screen (CellTiter-Glo)
# Format: cell-based, human
# Conditions: BT-549 (Breast), 20 micromolar, 72 hrs
# Protocol: as §1
row,Substance,Percent Inhibition
1,Bannaxanthone E [bn-3],97%

# Test system: Bel-7402
# Assay: Cell panel screen (CellTiter-Glo)
# Format: cell-based, human
# Conditions: Bel-7402 (Liver), 20 micromolar, 72 hrs
# Protocol: as §1
row,Substance,Percent Inhibition
1,Bannaxanthone E [bn-3],98%

# Test system: C3A
# Assay: Cell panel screen (CellTiter-Glo)
# Format: cell-based, human
# Conditions: C3A (Liver), 20 micromolar, 72 hrs
# Protocol: as §1
row,Substance,Percent Inhibition
1,Bannaxanthone E [bn-3],78%

# Test system: C8166
# Assay: Cell panel screen (CellTiter-Glo)
# Format: cell-based, human
# Conditions: C8166 (Leukemia), 20 micromolar, 72 hrs
# Protocol: as §1
row,Substance,Percent Inhibition
1,Bannaxanthone E [bn-3],98%

# Test system: CCF-STTG1
# Assay: Cell panel screen (CellTiter-Glo)
# Format: cell-based, human
# Conditions: CCF-STTG1 (Brain), 20 micromolar, 72 hrs
# Protocol: as §1
row,Substance,Percent Inhibition
1,Bannaxanthone E [bn-3],93%

# Test system: CW-2
# Assay: Cell panel screen (CellTiter-Glo)
# Format: cell-based, human
# Conditions: CW-2 (Colon), 20 micromolar, 72 hrs
# Protocol: as §1
row,Substance,Percent Inhibition
1,Bannaxanthone E [bn-3],99%

# Test system: ChaGo-K-1
# Assay: Cell panel screen (CellTiter-Glo)
# Format: cell-based, human
# Conditions: ChaGo-K-1 (Lung), 20 micromolar, 72 hrs
# Protocol: as §1
row,Substance,Percent Inhibition
1,Bannaxanthone E [bn-3],97%

# Test system: Colo 205
# Assay: Cell panel screen (CellTiter-Glo)
# Format: cell-based, human
# Conditions: Colo 205, 20 micromolar, 72 hrs
# Protocol: as §1
row,Substance,Percent Inhibition
1,Bannaxanthone E [bn-3],99%

# Test system: HCC1395
# Assay: Cell panel screen (CellTiter-Glo)
# Format: cell-based, human
# Conditions: HCC1395 (Breast), 20 micromolar, 72 hrs
# Protocol: as §1
row,Substance,Percent Inhibition
1,Bannaxanthone E [bn-3],98%

# Test system: HCC1569
# Assay: Cell panel screen (CellTiter-Glo)
# Format: cell-based, human
# Conditions: HCC1569 (Breast), 20 micromolar, 72 hrs
# Protocol: as §1
row,Substance,Percent Inhibition
1,Bannaxanthone E [bn-3],97%

# Test system: HCC1599
# Assay: Cell panel screen (CellTiter-Glo)
# Format: cell-based, human
# Conditions: HCC1599 (Breast), 20 micromolar, 72 hrs
# Protocol: as §1
row,Substance,Percent Inhibition
1,Bannaxanthone E [bn-3],98%

# Test system: HCC1937
# Assay: Cell panel screen (CellTiter-Glo)
# Format: cell-based, human
# Conditions: HCC1937 (Breast), 20 micromolar, 72 hrs
# Protocol: as §1
row,Substance,Percent Inhibition
1,Bannaxanthone E [bn-3],98%

# Test system: HEC-1-A
# Assay: Cell panel screen (CellTiter-Glo)
# Format: cell-based, human
# Conditions: HEC-1-A (Uterus), 20 micromolar, 72 hrs
# Protocol: as §1
row,Substance,Percent Inhibition
1,Bannaxanthone E [bn-3],88%

# Test system: HGC-27
# Assay: Cell panel screen (CellTiter-Glo)
# Format: cell-based, human
# Conditions: HGC-27 (Stomach), 20 micromolar, 72 hrs
# Protocol: as §1
row,Substance,Percent Inhibition
1,Bannaxanthone E [bn-3],98%

# Test system: HPAF-II
# Assay: Cell panel screen (CellTiter-Glo)
# Format: cell-based, human
# Conditions: HPAF-II (Pancreas), 20 micromolar, 72 hrs
# Protocol: as §1
row,Substance,Percent Inhibition
1,Bannaxanthone E [bn-3],92%

# Test system: HT-1197
# Assay: Cell panel screen (CellTiter-Glo)
# Format: cell-based, human
# Conditions: HT-1197 (Urinary bladder), 20 micromolar, 72 hrs
# Protocol: as §1
row,Substance,Percent Inhibition
1,Bannaxanthone E [bn-3],98%

# Test system: J82
# Assay: Cell panel screen (CellTiter-Glo)
# Format: cell-based, human
# Conditions: J82 (Urinary bladder), 20 micromolar, 72 hrs
# Protocol: as §1
row,Substance,Percent Inhibition
1,Bannaxanthone E [bn-3],98%

# Test system: M059J
# Assay: Cell panel screen (CellTiter-Glo)
# Format: cell-based, human
# Conditions: M059J (Brain), 20 micromolar, 72 hrs
# Protocol: as §1
row,Substance,Percent Inhibition
1,Bannaxanthone E [bn-3],97%

# Test system: MSTO-211-H
# Assay: Cell panel screen (CellTiter-Glo)
# Format: cell-based, human
# Conditions: MSTO-211-H (Lung), 20 micromolar, 72 hrs
# Protocol: as §1
row,Substance,Percent Inhibition
1,Bannaxanthone E [bn-3],98%

# Test system: NCI-H1623
# Assay: Cell panel screen (CellTiter-Glo)
# Format: cell-based, human
# Conditions: NCI-H1623 (Lung), 20 micromolar, 72 hrs
# Protocol: as §1
row,Substance,Percent Inhibition
1,Bannaxanthone E [bn-3],95%

# Test system: NCI-H1694
# Assay: Cell panel screen (CellTiter-Glo)
# Format: cell-based, human
# Conditions: NCI-H1694 (Lung), 20 micromolar, 72 hrs
# Protocol: as §1
row,Substance,Percent Inhibition
1,Bannaxanthone E [bn-3],99%

# Test system: NCI-H1770
# Assay: Cell panel screen (CellTiter-Glo)
# Format: cell-based, human
# Conditions: NCI-H1770 (Lung), 20 micromolar, 72 hrs
# Protocol: as §1
row,Substance,Percent Inhibition
1,Bannaxanthone E [bn-3],98%

# Test system: NCI-H2347
# Assay: Cell panel screen (CellTiter-Glo)
# Format: cell-based, human
# Conditions: NCI-H2347 (Lung), 20 micromolar, 72 hrs
# Protocol: as §1
row,Substance,Percent Inhibition
1,Bannaxanthone E [bn-3],89%

# Test system: NCI-H2405
# Assay: Cell panel screen (CellTiter-Glo)
# Format: cell-based, human
# Conditions: NCI-H2405 (Lung), 20 micromolar, 72 hrs
# Protocol: as §1
row,Substance,Percent Inhibition
1,Bannaxanthone E [bn-3],96%

# Test system: NCI-H28
# Assay: Cell panel screen (CellTiter-Glo)
# Format: cell-based, human
# Conditions: NCI-H28 (Lung), 20 micromolar, 72 hrs
# Protocol: as §1
row,Substance,Percent Inhibition
1,Bannaxanthone E [bn-3],95%

# Test system: NCI-H524
# Assay: Cell panel screen (CellTiter-Glo)
# Format: cell-based, human
# Conditions: NCI-H524 (Lung), 20 micromolar, 72 hrs
# Protocol: as §1
row,Substance,Percent Inhibition
1,Bannaxanthone E [bn-3],99%

# Test system: Panc 03.27
# Assay: Cell panel screen (CellTiter-Glo)
# Format: cell-based, human
# Conditions: Panc 03.27 (Pancreas), 20 micromolar, 72 hrs
# Protocol: as §1
row,Substance,Percent Inhibition
1,Bannaxanthone E [bn-3],92%

# Test system: RL95
# Assay: Cell panel screen (CellTiter-Glo)
# Format: cell-based, human
# Conditions: RL95 (Uterus), 20 micromolar, 72 hrs
# Protocol: as §1
row,Substance,Percent Inhibition
1,Bannaxanthone E [bn-3],98%

# Test system: SW13
# Assay: Cell panel screen (CellTiter-Glo)
# Format: cell-based, human
# Conditions: SW13 (Adrenal gland), 20 micromolar, 72 hrs
# Protocol: as §1
row,Substance,Percent Inhibition
1,Bannaxanthone E [bn-3],98%

# Test system: T47D
# Assay: Cell panel screen (CellTiter-Glo)
# Format: cell-based, human
# Conditions: T47D (Breast), 20 micromolar, 72 hrs
# Protocol: as §1
row,Substance,Percent Inhibition
1,Bannaxanthone E [bn-3],96%

# Test system: T98G
# Assay: Cell panel screen (CellTiter-Glo)
# Format: cell-based, human
# Conditions: T98G (Brain), 20 micromolar, 72 hrs
# Protocol: as §1
row,Substance,Percent Inhibition
1,Bannaxanthone E [bn-3],99%

# Test system: TCCSUP
# Assay: Cell panel screen (CellTiter-Glo)
# Format: cell-based, human
# Conditions: TCCSUP (Urinary bladder), 20 micromolar, 72 hrs
# Protocol: as §1
row,Substance,Percent Inhibition
1,Bannaxanthone E [bn-3],96%

# Test system: ZR-75-30
# Assay: Cell panel screen (CellTiter-Glo)
# Format: cell-based, human
# Conditions: ZR-75-30 (Breast), 20 micromolar, 72 hrs
# Protocol: as §1
row,Substance,Percent Inhibition
1,Bannaxanthone E [bn-3],99%

# — paper PMC4450297, “Screening Active Compounds from Garcinia Species Native to China Reveals Novel Compounds Targeting the STAT/JAK Signaling Pathway” (BioMed Research International, 2015)
